# Assays:
# Assay type in all cases: ADME, organism-based
# Settings in all cases: in vivo
# Oryza sativa [1] = assay: Effect on total phenols level in Sogatella furcifera-sensitive Oryza sativa (rice) plant ARC6248 leaf sheath measured per gram of dry weight at 0.0018% concentration (reference value: 12.75 mg/g dry wt)
# Oryza sativa [2] = assay: Effect on reducing sugar level in Sogatella furcifera-sensitive Oryza sativa (rice) plant ARC6248 leaf sheath measured per gram of dry weight at 0.0018% concentration (reference value: 6.41 mg/g dry wt)
# Oryza sativa [3] = assay: Effect on total phenols level in Sogatella furcifera-sensitive Oryza sativa (rice) plant ARC6248 leaf sheath measured per gram of dry weight at 0.0035% concentration (reference value: 12.75 mg/g dry wt)
# Oryza sativa [4] = assay: Effect on reducing sugar level in Sogatella furcifera-sensitive Oryza sativa (rice) plant ARC6248 leaf blade measured per gram of dry weight at 0.0018% concentration (reference value: 8.37 mg/g dry wt)
# Oryza sativa [5] = assay: Effect on reducing sugar level in Sogatella furcifera-sensitive Oryza sativa (rice) plant ARC6248 leaf sheath measured per gram of dry weight at 0.0035% concentration (reference value: 6.41 mg/g dry wt)
# Oryza sativa [6] = assay: Effect on total phenols level in Sogatella furcifera-resistanct Oryza sativa (rice) plant PR116 leaf sheath measured per gram of dry weight at 0.0035% concentration (reference value: 5.75 mg/g dry wt)
# Oryza sativa [7] = assay: Effect on total amino acids level in Sogatella furcifera-sensitive Oryza sativa (rice) plant ARC6248 leaf blade measured per gram of dry weight at 0.0018% concentration (reference value: 3.54 mg/g fresh wt)
# Oryza sativa [8] = assay: Effect on total phenols level in Sogatella furcifera-sensitive Oryza sativa (rice) plant ARC6248 leaf blade measured per gram of dry weight at 0.0035% concentration (reference value: 17.08 mg/g dry wt)
# Oryza sativa [9] = assay: Effect on total sugar level in Sogatella furcifera-resistanct Oryza sativa (rice) plant PR116 leaf blade measured per gram of dry weight at 0.0035% concentration (reference value: 36.16 mg/g dry wt)
# Oryza sativa [10] = assay: Effect on reducing sugar level in Sogatella furcifera-resistanct Oryza sativa (rice) plant PR116 leaf sheath measured per gram of dry weight at 0.0035% concentration (reference value: 7.50 mg/g dry wt)
# Oryza sativa [11] = assay: Effect on total phenols level in Sogatella furcifera-resistanct Oryza sativa (rice) plant PR116 leaf blade measured per gram of dry weight at 0.0035% concentration (reference value: 8.08 mg/g dry wt)
# Oryza sativa [12] = assay: Effect on total sugar level in Sogatella furcifera-sensitive Oryza sativa (rice) plant ARC6248 leaf blade measured per gram of dry weight at 0.0018% concentration (reference value: 34.05 mg/g dry wt)
# Oryza sativa [13] = assay: Effect on total sugar level in Sogatella furcifera-resistanct Oryza sativa (rice) plant PR116 leaf sheath measured per gram of dry weight at 0.0035% concentration (reference value: 30.27 mg/g dry wt)
# Oryza sativa [14] = assay: Effect on total sugar level in Sogatella furcifera-sensitive Oryza sativa (rice) plant ARC6248 leaf blade measured per gram of dry weight at 0.0035% concentration (reference value: 34.05 mg/g dry wt)
# Oryza sativa [15] = assay: Effect on total protein level in Sogatella furcifera-sensitive Oryza sativa (rice) plant ARC6248 leaf sheath measured per gram of dry weight at 0.0035% concentration (reference value: 6.11 mg/g […])
# Oryza sativa [16] = assay: Effect on total protein level in Sogatella furcifera-resistanct Oryza sativa (rice) plant PR116 leaf sheath measured per gram of dry weight at 0.0018% concentration (reference value: 7.06 mg/g fresh wt)
# Oryza sativa [17] = assay: Effect on reducing sugar level in Sogatella furcifera-resistanct Oryza sativa (rice) plant PR116 leaf blade measured per gram of dry weight at 0.0035% concentration (reference value: 9.35 mg/g dry wt)
# Oryza sativa [18] = assay: Effect on total phenols level in Sogatella furcifera-sensitive Oryza sativa (rice) plant ARC6248 leaf blade measured per gram of dry weight at 0.0018% concentration (reference value: 17.08 mg/g dry wt)
# Oryza sativa [19] = assay: Effect on total amino acids level in Sogatella furcifera-resistanct Oryza sativa (rice) plant PR116 leaf sheath measured per gram of dry weight at 0.0035% concentration (reference value: 2.58 mg/g […])
# Oryza sativa [20] = assay: Effect on total phenols level in Sogatella furcifera-resistanct Oryza sativa (rice) plant PR116 leaf sheath measured per gram of dry weight at 0.0018% concentration (reference value: 5.75 mg/g dry wt)
# Oryza sativa [21] = assay: Effect on reducing sugar level in Sogatella furcifera-resistanct Oryza sativa (rice) plant PR116 leaf sheath measured per gram of dry weight at 0.0018% concentration (reference value: 7.50 mg/g dry wt)
# Oryza sativa [22] = assay: Effect on total sugar level in Sogatella furcifera-resistanct Oryza sativa (rice) plant PR116 leaf blade measured per gram of dry weight at 0.0018% concentration (reference value: 36.16 mg/g dry wt)
# Oryza sativa [23] = assay: Effect on total sugar level in Sogatella furcifera-sensitive Oryza sativa (rice) plant ARC6248 leaf sheath measured per gram of dry weight at 0.0035% concentration (reference value: 25.98 mg/g dry wt)
# Oryza sativa [24] = assay: Effect on total protein level in Sogatella furcifera-resistanct Oryza sativa (rice) plant PR116 leaf sheath measured per gram of dry weight at 0.0035% concentration (reference value: 7.06 mg/g fresh wt)
# Oryza sativa [25] = assay: Effect on total amino acids level in Sogatella furcifera-resistanct Oryza sativa (rice) plant PR116 leaf blade measured per gram of dry weight at 0.0035% concentration (reference value: 3.91 mg/g […])
# Oryza sativa [26] = assay: Effect on total phenols level in Sogatella furcifera-resistanct Oryza sativa (rice) plant PR116 leaf blade measured per gram of dry weight at 0.0018% concentration (reference value: 8.08 mg/g dry wt)
# Oryza sativa [27] = assay: Effect on total protein level in Sogatella furcifera-resistanct Oryza sativa (rice) plant PR116 leaf blade measured per gram of dry weight at 0.0018% concentration (reference value: 21.67 mg/g fresh wt)
# Oryza sativa [28] = assay: Effect on total protein level in Sogatella furcifera-sensitive Oryza sativa (rice) plant ARC6248 leaf sheath measured per gram of dry weight at 0.0018% concentration (reference value: 6.11 mg/g […])
# Oryza sativa [29] = assay: Effect on total amino acids level in Sogatella furcifera-sensitive Oryza sativa (rice) plant ARC6248 leaf sheath measured per gram of dry weight at 0.0035% concentration (reference value: 2.11 mg/g fresh wt)
# Oryza sativa [30] = assay: Effect on total amino acids level in Sogatella furcifera-resistanct Oryza sativa (rice) plant PR116 leaf blade measured per gram of dry weight at 0.0018% concentration (reference value: 3.91 mg/g […])
# Oryza sativa [31] = assay: Effect on total sugar level in Sogatella furcifera-sensitive Oryza sativa (rice) plant ARC6248 leaf sheath measured per gram of dry weight at 0.0018% concentration (reference value: 25.98 mg/g dry wt)
# Oryza sativa [32] = assay: Effect on total protein level in Sogatella furcifera-sensitive Oryza sativa (rice) plant ARC6248 leaf blade measured per gram of dry weight at 0.0035% concentration (reference value: 17.67 mg/g fresh wt)
# Oryza sativa [33] = assay: Effect on total amino acids level in Sogatella furcifera-resistanct Oryza sativa (rice) plant PR116 leaf sheath measured per gram of dry weight at 0.0018% concentration (reference value: 2.58 mg/g […])
# Oryza sativa [34] = assay: Effect on total protein level in Sogatella furcifera-resistanct Oryza sativa (rice) plant PR116 leaf blade measured per gram of dry weight at 0.0035% concentration (reference value: 21.67 mg/g fresh wt)
# Oryza sativa [35] = assay: Effect on total amino acids level in Sogatella furcifera-sensitive Oryza sativa (rice) plant ARC6248 leaf blade measured per gram of dry weight at 0.0035% concentration (reference value: 3.54 mg/g fresh wt)
# Oryza sativa [36] = assay: Effect on reducing sugar level in Sogatella furcifera-resistanct Oryza sativa (rice) plant PR116 leaf blade measured per gram of dry weight at 0.0018% concentration (reference value: 9.35 mg/g dry wt)
# Oryza sativa [37] = assay: Effect on reducing sugar level in Sogatella furcifera-sensitive Oryza sativa (rice) plant ARC6248 leaf blade measured per gram of dry weight at 0.0035% concentration (reference value: 8.37 mg/g dry wt)
# Oryza sativa [38] = assay: Effect on total protein level in Sogatella furcifera-sensitive Oryza sativa (rice) plant ARC6248 leaf blade measured per gram of dry weight at 0.0018% concentration (reference value: 17.67 mg/g fresh wt)
# Oryza sativa [39] = assay: Effect on total amino acids level in Sogatella furcifera-sensitive Oryza sativa (rice) plant ARC6248 leaf sheath measured per gram of dry weight at 0.0018% concentration (reference value: 2.11 mg/g fresh wt)
# Oryza sativa [40] = assay: Effect on total sugar level in Sogatella furcifera-resistanct Oryza sativa (rice) plant PR116 leaf sheath measured per gram of dry weight at 0.0018% concentration (reference value: 30.27 mg/g dry wt)
smiles,measurement,setting,value
O=[N+]([O-])NC1=NCCN1Cc1ccc(Cl)nc1 [IMIDACLOPRID],Activity,Oryza sativa [1],14.75 mg
same,Activity,Oryza sativa [2],7.28 mg
same,Activity,Oryza sativa [3],14.08 mg
same,Activity,Oryza sativa [4],9.67 mg
same,Activity,Oryza sativa [5],6.63 mg
same,Activity,Oryza sativa [6],6.67 mg
same,Activity,Oryza sativa [7],3.21 mg
same,Activity,Oryza sativa [8],18 mg
same,Activity,Oryza sativa [9],39.91 mg
same,Activity,Oryza sativa [10],8.81 mg
same,Activity,Oryza sativa [11],8 mg
same,Activity,Oryza sativa [12],40.45 mg
same,Activity,Oryza sativa [13],32.41 mg
same,Activity,Oryza sativa [14],37 mg
same,Activity,Oryza sativa [15],5.56 mg
same,Activity,Oryza sativa [16],6.06 mg
same,Activity,Oryza sativa [17],11.85 mg
same,Activity,Oryza sativa [18],17.67 mg
same,Activity,Oryza sativa [19],2.68 mg
same,Activity,Oryza sativa [20],6.17 mg
same,Activity,Oryza sativa [21],8.8 mg
same,Activity,Oryza sativa [22],40.98 mg
same,Activity,Oryza sativa [23],30.27 mg
same,Activity,Oryza sativa [24],6.67 mg
same,Activity,Oryza sativa [25],4.27 mg
same,Activity,Oryza sativa [26],8.08 mg
same,Activity,Oryza sativa [27],18.89 mg
same,Activity,Oryza sativa [28],5.56 mg
same,Activity,Oryza sativa [29],2.48 mg
same,Activity,Oryza sativa [30],3.73 mg
same,Activity,Oryza sativa [31],34.55 mg
same,Activity,Oryza sativa [32],17.78 mg
same,Activity,Oryza sativa [33],2.4 mg
same,Activity,Oryza sativa [34],21.11 mg
same,Activity,Oryza sativa [35],3.73 mg
same,Activity,Oryza sativa [36],12.72 mg
same,Activity,Oryza sativa [37],8.8 mg
same,Activity,Oryza sativa [38],15.11 mg
same,Activity,Oryza sativa [39],2.02 mg
same,Activity,Oryza sativa [40],31.34 mg
